Measurements from US11873279B2, “Compositions for treatment of ocular diseases” (Perfuse Therapeutics, Inc., priority 2020, dated 2024).

What was measured:
[1] = Slurry conversion of crystalline forms, XRPD confirmation (thermodynamic stability); type: physicochemical
Protocol: For example, a disclosed crystalline form (e.g., Form 4), may be stored under practical and economical storage conditions, while retaining physical properties so that it may be manufactured into a dosage form. In another set of examples, a disclosed crystalline form (e.g., Form 1, Form 2, Form 3) are converted to disclosed crystalline form (e.g., Form 4). For example, heating a slurry of crystalline Form 1 in about 20 mL of a mixture of isopropanol and water (1:2) at 80° C. for 24 hours, and then cooling and filtering the sample obtained from the solution affords the crystalline Form 4. In another example, stirring the amorphous form of a compound of Formula I in 20 mL of water at 25° C. for 15 hours affords crystalline Form 2, and then subsequently heating crystalline Form 2 at 100° C. for 40 hours followed by filtration affords the crystalline Form 4. In yet another example, heating a slurry of the anhydrous crystalline Form 3 in 30 mL of water at 80° C. for 40 hours and then cooling and filtering the sample obtained from the solution affords the crystalline Form 4. […] In an embodiment, a disclosed crystalline form may have improved chemical and/or physical stability when e.g., compounded in a pharmaceutical formulation, as compared to e.g., the amorphous form. In some embodiments, the crystalline form is crystalline Form 4.
In an alternate method, 150 mg of Edonentan (Form 3) was added to a mixture of isopropanol and water (1 mL and 2 mL, respectively). The resulting slurry was stirred at 15° C. for 48 hours and then filtered.
In an alternate method, 200 mg of Edonentan (Form 1) was added to a mixture of isopropanol and water (1.3 mL and 2.6 mL, respectively). The resulting solution was heated to 80° C. and stirred for 24 h, then cooled and filtered.

[2] = system: laser-induced NHP glaucoma model; test: Laser-induced NHP glaucoma model, optic nerve head blood flow; type: in vivo, non-human primate (NHP); conditions: dose-dependent
Excerpt: Other examples of relevant animal glaucoma models are Morrison's rat model of chronically elevated IOP and the laser-induced non-human primate (NHP) glaucoma model. Glaucoma in Morrison's rat model is induced by sustained elevation of IOP through hypertonic saline administration via episcleral veins. […] Efficacy in the above-described glaucoma models is defined as reduction in IOP, improvement in optic nerve head or retinal blood flow from baseline, prevention or slowing of the progression of structural neurodegenerative changes such as retinal nerve fiber layer thickness as measured by optical coherence tomography (OCT) or retinal ganglion cell counts on flat mount as well as functional changes such as electroretinography (ERG) or contrast sensitivity after treatment with a composition containing Edonentan crystalline forms.

Cc1onc(NS(=O)(=O)c2ccccc2-c2ccc(-c3ncco3)cc2CN(C)C(=O)CC(C)(C)C)c1C [Form 4, N-[[2′-[[(4,5-dimethyl-3-isoxazolyl)amino]sulfonyl]-4-(2-oxazolyl)[1,1′-biphenyl]-2-yl]methyl]-N,3,3-trimethylbutanamide]
Thermodynamic stability relative to Form 1 ([1]; Form 1 in isopropanol/water (1.3 mL/2.6 mL), 80° C., 24 h, converted to Form 4 by XRPD): more thermodynamically stable than Form 1
Thermodynamic stability relative to Form 3 ([1]; Form 3 slurry in isopropanol/water (1 mL/2 mL), 15° C., 48 hours, converted to Form 4 by XRPD): more thermodynamically stable than Form 3
Thermodynamic stability compared to the other crystalline forms ([1]; summary statement of Example 6): higher thermodynamic stability compared to Form 1, Form 2 and Form 3

Cc1onc(NS(=O)(=O)c2ccccc2-c2ccc(-c3ncco3)cc2CN(C)C(=O)CC(C)(C)C)c1C [Edonentan, N-[[2′-[[(4,5-dimethyl-3-isoxazolyl)amino]sulfonyl]-4-(2-oxazolyl)[1,1′-biphenyl]-2-yl]methyl]-N,3,3-trimethylbutanamide]
Optic nerve head blood flow [2]: improve optic nerve head blood flow in a dose-dependent manner
